According to US20080262097A1, “Formulations” (priority 2005, published 2008):
In brackets after ≈: the same amount, converted by molar mass. Read-outs that look alike come from different tables or passages of the source.

Experiments:
[1] = tested on: S. aureus ATCC 12600-U; experiment: MIC assay; assay type: cell-based; settings: Staphylococcus aureus, ATCC12600
Description: (§1) The staphylococci and enterococci were cultured and maintained on Mueller-Hinton Medium (agar and broth) at pH 7.2; they were incubated aerobically at 37° C. for 24 hours.
(§2) This is a standard international method for quantitatively assessing the antimicrobial activity of a compound in a liquid medium. The method used a 96-well microtitre plate, capable of holding about 200 μl of liquid per well. […] The culture media were as described above for the relevant test organisms.
(§3) The wells were inoculated with a liquid suspension of freshly grown micro-organism and incubated under the conditions described above. After incubation, the microtitre plate was examined visually (with the aid of a light box) for cell pellets in and/or opaque wells, which would indicate microbial growth. The MIC value was recorded as the lowest concentration of test compound required to inhibit microbial growth, ie, the lowest concentration for which the liquid in the well remained clear.
(§4) The assays were conducted in duplicate and included both negative (culture medium only) and positive (culture medium, diluting solvent and inoculum) controls.

[2] = tested on: S. epidermidis (NCTC 11047); experiment: MIC assay; assay type: cell-based; settings: Staphylococcus epidermidis, NCTC11047
Description: as §1, §2, §3, §4

[3] = tested on: S. saprophyticus NCTC 7292; experiment: MIC assay; assay type: cell-based; settings: Staphylococcus saprophyticus, NCTC7292
Description: as §1, §2, §3, §4

[4] = tested on: S. aureus CPHL EMRSA 16; experiment: MBC assay; assay type: cell-based; settings: Staphylococcus aureus; S. aureus CPHL EMRSA 16 (resistance Met/β-lactams)
Description: (§5) Other staphylococcal strains were also tested, as described in Example 5 below. These included certain antibiotic resistant staphylococci, such as the methicillin resistant S. aureus (MRSA) strains EMRSA-15 and EMRSA-16, both available from the Central Public Health Laboratory (CPHL), Colindale, UK. These strains are resistant not only to all beta-lactams but also to a number of other antibiotics in clinical use, making them a serious threat to human health. They are also responsible for the majority (>95%) of hospital-acquired MRSA infections in the UK.
as §1
(§6) This assay, normally carried out after an MIC assay, determines the minimum concentration of a compound that is lethal to the micro-organism being tested.
(§7) These samples were then individually sub-cultured on non-selective agar medium, under the incubation conditions described above. Following incubation they were examined visually for bacterial growth.

[5] = tested on: S. aureus CPHL EMRSA 15; experiment: MBC assay; assay type: cell-based; settings: Staphylococcus aureus
Description: as §5, §1, §6, §7

[6] = tested on: E faecalis ATCC 29212; experiment: MIC assay; assay type: cell-based; settings: Enterococcus faecalis, ATCC29212
Text: (§8) 3. Enterococcus faecalis ATCC 29212—this is a Gram-positive bacterium belonging to the genus Enterococcus. Enterococci have similar properties to streptococci, but differ in their ability to grow on bile-salt containing media such as MacConkey's Agar. Their principal habitat is the mammalian gastrointestinal tract. They cause a number of important infections including endocarditis, urinary tract infections and abscesses. In the context of skin, they are frequently isolated from wound infections. Unlike the streptococci, the enterococci have developed widespread resistance to penicillin. More recently, E. faecalis and E. faecium strains have also developed resistance to the glycopeptide antibiotics such as vancomycin. Vancomycin-Resistant Enterococci (VRE), principally vanA strains of E. faecium, now represent a serious healthcare-acquired infection hazard in the USA, Japan and Western Europe. […]
This is a standard international method for quantitatively assessing the antimicrobial activity of a compound in a liquid medium. […]
The wells were inoculated with a liquid suspension of freshly grown micro-organism and incubated under the conditions described above. […] The MIC value was recorded as the lowest concentration of test compound required to inhibit microbial growth, ie, the lowest concentration for which the liquid in the well remained clear. […]

[7] = tested on: S. aureus CPHL EMRSA 16; experiment: MIC assay; assay type: cell-based; settings: Staphylococcus aureus
Description: as §5, §1, §2, §3, §4

[8] = tested on: S. aureus CPHL EMRSA 15; experiment: MIC assay; assay type: cell-based; settings: Staphylococcus aureus
Description: as §5, §1, §2, §3, §4

[9] = tested on: E faecalis ATCC 29212; experiment: Disc diffusion assay (DDA); assay type: cell-based, Enterococcus faecalis; settings: zone diameter, 200 μg per disc
Text: as §8
A sterile paper disc was impregnated with a sample of the test compound and a minimum of 30 minutes allowed for the solvents to evaporate as far as possible. […] The diameter of this zone of “inhibition” was measured using a ProtoCOL™ automated zone sizer (Synbiosis, Cambridge, UK). […]
The area of the zone of inhibition was calculated from the measured zone diameter (D) using the formula π(D/2)^2. […]

[10] = tested on: P. acnes PRP-053; experiment: MIC assay; assay type: cell-based, Propionibacterium acnes; settings: Cutibacterium acnes, PRP053; P. acnes PRP-053 (resistance Tet/MLS)
Description: (§9) Other propionibacterial strains were also tested, as described in Example 8 below. These included certain antibiotic resistant propionibacteria, such as the two P. acnes strains PRP-010 and PRP-053 which are resistant respectively to macrolides-lincosamides-streptogramins-ketolides (MLSK) and to macrolides-lincosamides-streptogramins (MLS) and tetracycline—in other words, PRP-010 is resistant to erythromycin and clindamycin, and […] to erythromycin, clindamycin and tetracycline.
(§10) The Propionibacterium spp organisms were cultured and maintained on Wilkins-Chalgren Anaerobe Medium (agar and broth) at pH 6.0; cultures were incubated anaerobically at 37° C. for 72 hours.
as §2, §3, §4

[11] = tested on: P. acnes PRP-010; experiment: MIC assay; assay type: cell-based, Propionibacterium acnes; settings: Cutibacterium acnes, PRP010; P. acnes PRP-010 (resistance MLSK)
Description: as §9, §10, §2, §3, §4

[12] = tested on: P. granulosum NCTC 11865; experiment: Disc diffusion assay (DDA); assay type: cell-based; settings: zone diameter, 200 μg per disc
Description: as §10
(§11) A sterile paper disc was impregnated with a sample of the test compound and a minimum of 30 minutes allowed for the solvents to evaporate as far as possible. The disc was then placed on an agar plate onto which the test micro-organism had been inoculated. The plate was then incubated under the conditions described above, following which it was examined visually for signs of bacterial growth. If the test compound had antimicrobial activity, a circular zone of no growth would be obtained around the disc. The diameter of this zone of “inhibition” was measured using a ProtoCOL™ automated zone sizer (Synbiosis, Cambridge, UK). In general, a greater diameter and/or area of the zone of inhibition indicates a greater antimicrobial activity in the relevant test compound, although other factors such as test compound mobility through the agar gel may also influence the result.
(§12) The area of the zone of inhibition was calculated from the measured zone diameter (D) using the formula π(D/2)^2.

[13] = tested on: P. avidum ATCC 25577; experiment: Disc diffusion assay (DDA); assay type: cell-based; settings: zone diameter, 200 μg per disc
Description: as §10, §11, §12

[14] = tested on: P. granulosum PRP-043; experiment: Disc diffusion assay (DDA); assay type: cell-based; settings: zone diameter, 200 μg per disc
Description: as §10, §11, §12

[15] = tested on: P. granulosum PRP-055; experiment: Disc diffusion assay (DDA); assay type: cell-based; settings: zone diameter, 200 μg per disc
Description: as §10, §11, §12

[16] = tested on: P. granulosum PRP-005; experiment: Disc diffusion assay (DDA); assay type: cell-based; settings: zone diameter, 200 μg per disc
Description: as §10, §11, §12

[17] = tested on: P. granulosum PRP-044; experiment: Disc diffusion assay (DDA); assay type: cell-based; settings: zone diameter, 200 μg per disc
Description: as §10, §11, §12

| SMILES | MBC [4] [µg/mL] | MIC [7] [µg/mL] | MIC [8] [µg/mL] | DDA [9] [mm] | MIC [10] [µg/mL] | MIC [11] [µg/mL] | DDA [12] | DDA [13] | DDA [14] | DDA [15] | DDA [16] | DDA [17] | other results |
| --- | --- | --- | --- | --- | --- | --- | --- | --- | --- | --- | --- | --- | --- |
| CC(C)(C)c1cc(O)ccc1O [TBHQ, t-butyl hydroquinone] | 3.9 (≈ 23.5 µM) | 3.9 (≈ 23.5 µM) | 3.9 (≈ 23.5 µM) | 33.67 | 3.9 (≈ 23.5 µM) | 3.9 (≈ 23.5 µM) | 11.00 (±0.00) mm | 9.16 (±0.48) mm | 10.56 (±0.48) mm | 13.07 (±0.78) mm | 0.00 (±0.00) mm | 10.70 (±0.65) mm | MIC [1]: 3.9 µg/mL (≈ 23.5 µM); MIC [2]: 3.9 µg/mL (≈ 23.5 µM); MIC [3]: 3.9 µg/mL (≈ 23.5 µM); MBC ([5]; S. aureus CPHL EMRSA 15 (resistance Met/β-lactams), read-out: MBC): 3.9 µg/mL (≈ 23.5 µM); MIC [6]: 15.6 µg/mL |
| O=C(OOC(=O)c1ccccc1)c1ccccc1 [benzoyl peroxide] | 250 (≈ 1030 µM) | 125 (≈ 516 µM) | 125 (≈ 516 µM) | 0.0 | 31.2 (≈ 129 µM) | 31.2 (≈ 129 µM) | 24.19 (±0.94) mm | 25.83 (±0.95) mm | 22.48 (±1.19) mm | 21.51 (±0.47) mm | 22.95 (±0.64) mm | 29.31 (±0.54) mm | MIC ([1]; S. aureus ATCC 12600-U, read-out: MIC): 250 µg/mL (≈ 1030 µM); MIC ([2]; S. epidermidis NCTC 11047, read-out: MIC): 250 µg/mL (≈ 1030 µM); MIC ([3]; S. saprophyticus NCTC 7292, read-out: MIC): 250 µg/mL (≈ 1030 µM); MBC [5]: 125 to 250 µg/mL (≈ 516 to 1030 µM); MIC ([6]; E faecalis ATCC 29212, read-out: MIC): > 250 µg/mL |
